From patent US20240239772A1, “PROTEASE INHIBITORS AND METHODS OF USE” (The Cleveland Clinic Foundation, priority 2021, published 2024)
Read-outs that look alike come from different tables or passages of the source.

What was measured:
[1] = biological target: SARS-CoV-2 3CLpro (Severe acute respiratory syndrome coronavirus 2 (2019-nCoV) (SARS-CoV-2), UniProt P0DTD1); assay: biochemical; type: biochemical; conditions: read-out: SARS-CoV-2 IC50
[2] = biological target: SARS-CoV-1 3CLpro (Severe acute respiratory syndrome coronavirus (SARS-CoV), UniProt P0C6X7); type: biochemical
[3] = system: SARS-CoV-2; assay: microbe, parasite or virus in culture; type: cell-based; conditions: read-out: CPE Inhibition Assay EC50
[4] = system: SARS-CoV-2; assay: microbe, parasite or virus in culture; type: cell-based
[5] = Severe acute respiratory syndrome coronavirus 2, Vero C1008, 68 h
[6] = Severe acute respiratory syndrome coronavirus 2, Vero C1008, read-out: Plaque Reduction Assay EC50

| Structure (SMILES) | IC50 [1] | IC50 [2] | EC50 [3, 5] | EC50 [4, 6] | EC50 ([4]; Severe acute respiratory syndrome coronavirus 2, Vero C1008, Vero E6 ACE2 cells, approximately 50 PFUs SARS-CoV-2, read-out: Plaque Reduction Assay EC50) | EC50 ([3]; Severe acute respiratory syndrome coronavirus 2, Vero C1008, Vero E6 ACE2 cells, 100 TCID50 SARS-CoV-2, 68 h after infection) |
| --- | --- | --- | --- | --- | --- | --- |
| O=C(Cn1nnc2ccccc21)N(Cc1cccc(Cl)c1)c1ccc(-c2cn[nH]c2)nc1 [Compound 39, 2-(Benzotriazol-1-yl)-N-[(3-chlorophenyl)methyl]-N-[6-(1H-pyrazol-4-yl)-3-pyridyl]acetamide] | 0.333 ± 0.093 µM | 0.336 ± 0.065 µM | 3.81 ± 0.18 µM | 4.65 ± 0.11 µM | – | – |
| O=C(Cn1nnc2ccccc21)N(CC1CCOC1)c1ccc(-c2cccnc2)cc1 (stereo not shown) [Compound 26, 2-(1H-Benzo[d][1,2,3]triazol-1-yl)-N-(4-(pyridin-3-yl)phenyl)-N-((tetrahydrofuran-3-yl)methyl)acetamide] | 23 ± 1.38 µM | 20.5 ± 1.59 µM | – | – | – | – |
| O=C(Cn1nnc2ccccc21)N(Cc1cccc(Cl)c1)c1ccc(-c2cn[nH]c2)cn1 [Compound 40, 2-(Benzotriazol-1-yl)-N-[(3-chlorophenyl)methyl]-N-[5-(1H-pyrazol-4-yl)-2-pyridyl]acetamide] | 0.171 ± 0.029 µM | 0.214 ± 0.063 µM | 1.91 ± 0.3 µM | 3.39 ± 0.21 µM | – | – |
| CCC(CC)COC(=O)[C@H](C)N[P@](=O)(OC[C@H]1O[C@@](C#N)(c2ccc3c(N)ncnn23)[C@H](O)[C@@H]1O)Oc1ccccc1 [Remdesivir, reference compound] | – | – | 0.34 ± 0.01 µM | 0.43 ± 0.06 µM | – | – |
| O=C(Cn1nnc2ccccc21)N(Cc1ccc(Cl)c(Cl)c1)c1ccc(-c2cccnc2)cc1 [Compound 30, 2-(Benzotriazol-1-yl)-N-[(3,4-dichlorophenyl)methyl]-N-[4-(3-pyridyl)phenyl]acetamide] | > 200 µM | > 200 µM | – | – | – | – |
| O=C(Cn1nnc2ccccc21)N(Cc1ccsc1)c1ccc(-c2c[nH]cn2)cc1 [Compound 21, 2-(Benzotriazol-1-yl)-N-[4-(1H-imidazol-4-yl)phenyl]-N-(3-thienylmethyl)acetamide] | 0.06 ± 0.01 µM | – | 1.74 ± 0.19 µM | 1.75 ± 0.25 µM | – | – |
| O=C(Cn1nnc2ccccc21)N(Cc1cccc(Cl)c1)c1ccc(-c2ccc[nH]c2=O)cc1 [Compound 35, 2-(1H-Benzo[d][1,2,3]triazol-1-yl)-N-(3-chlorobenzyl)-N-(4-(2-oxo-1,2-dihydropyridin-3-yl)phenyl)acetamide] | 0.746 ± 0.098 µM | – | 8.77 ± 1.14 µM | – | 16.7 ± 2.44 µM | – |
| O=C(Cn1nnc2ccccc21)N(Cc1ccsc1)c1ccc(-c2cccnc2)cc1 [Compound 17b, 2-(1H-benzo[d][1,2,3]triazol-1-yl)-N-(4-(pyridin-3-yl)phenyl)-N-(thiophen-3-ylmethyl)acetamide, reference compound] | – | – | 12.1 ± 0.31 µM | 14.6 ± 1.22 µM | – | – |
| O=C(Cn1nnc2ccccc21)N(Cc1cc(F)cc(Cl)c1)c1ccc(-c2cccnc2)cc1 [Compound 31, 2-(Benzotriazol-1-yl)-N-[(3-chloro-5-fluoro-phenyl)methyl]-N-[4-(3-pyridyl)phenyl]acetamide] | 0.119 ± 0.005 µM | 0.074 ± 0.01 µM | – | – | – | – |
| O=C(Cn1nnc2ccccc21)N(Cc1cccc(Cl)c1)c1ccc(-c2cccnc2)cc1 [Compound 28, 2-(Benzotriazol-1-yl)-N-[(3-chlorophenyl)methyl]-N-[4-(3-pyridyl)phenyl]acetamide] | 0.39 ± 0.11 µM | – | 7.61 ± 1.43 µM | 11.1 ± 0.37 µM | – | – |
| COc1cc(N(Cc2cccc(Cl)c2)C(=O)Cn2nnc3ccccc32)ccc1-c1cn[nH]c1 [Compound 37, 2-(Benzotriazol-1-yl)-N-[(3-chlorophenyl)methyl]-N-[3-methoxy-4-(1H-pyrazol-4-yl)phenyl]acetamide] | 0.328 ± 0.027 µM | – | 2.93 ± 0.28 µM | 3.24 ± 0.27 µM | – | – |
| O=C(Cn1nnc2ccccc21)N(Cc1cccc(Cl)c1)c1ccc(-c2cn[nH]c2)cc1 [Compound 36, N-(4-(1H-Pyrazol-4-yl)phenyl)-2-(1H-benzo[d][1,2,3]triazol-1-yl)-N-(3-chlorobenzyl)acetamide] | 0.27 ± 0.067 µM | – | 1.98 ± 0.24 µM | 3.31 ± 0.1 µM | – | – |
| CC(C)CCN(C(=O)Cn1nnc2ccccc21)c1ccc(-c2cccnc2)cc1 [Compound 22, 2-(1H-Benzo[d][1,2,3]triazol-1-yl)-N-isopentyl-N-(4-(pyridin-3-yl)phenyl)acetamide] | 4.62 ± 0.13 µM | – | – | – | – | – |
| COc1ccc(F)cc1CN(C(=O)Cn1nnc2ccccc21)c1ccc(-c2c[nH]cn2)cc1 [Compound 110, 2-(benzotriazol-1-yl)-N-[(5-fluoro-2-methoxy-phenyl)methyl]-N-[4-(1H-imidazol-4-yl)phenyl]acetamide] | 0.2 µM | – | – | – | – | – |
| O=C(Nc1ccc(N(Cc2ccsc2)C(=O)Cn2nnc3ccccc32)cc1)C1CC1 [ML300, N-(4-(2-(1H-benzo[d][1,2,3]triazol-1-yl)-N-(thiophen-3-ylmethyl)acetamido)phenyl)cyclopropanecarboxamide, reference compound] | 4.99 ± 0.62 µM | – | 19.9 ± 6.32 µM | 28.2 ± 1.3 µM | – | – |
| O=C(Cn1nnc2ccccc21)N(Cc1cncc(F)c1)c1ccc(C2=CCNC2)cc1 [Compound 122, 2-(benzotriazol-1-yl)-N-[4-(2,5-dihydro-1H-pyrrol-3-yl)phenyl]-N-[(5-fluoro-3-pyridyl)methyl]acetamide] | 1.5 µM | – | – | – | – | – |
| O=C(Cn1nnc2ccccc21)N(Cc1cccc(F)c1)c1ccc(-c2c[nH]cn2)cc1 [Compound 82, 2-(benzotriazol-1-yl)-N-[(3-fluorophenyl)methyl]-N-[4-(1H-imidazol-4-yl)phenyl]acetamide] | 0.36 µM | – | – | – | – | – |
| COc1cc(-c2cn[nH]c2)ccc1N(Cc1cccc(Cl)c1)C(=O)Cn1nnc2ccccc21 [Compound 38, 2-(Benzotriazol-1-yl)-N-[(3-chlorophenyl)methyl]-N-[2-methoxy-4-(1H-pyrazol-4-yl)phenyl]acetamide] | 0.197 ± 0.05 µM | – | – | 2.01 ± 0.49 µM | – | 2.3 ± 0.33 µM |
